{"source": "paper PMC9499525", "about": "“Tissue-restricted inhibition of mTOR using chemical genetics” (Proceedings of the National Academy of Sciences of the …, 2022)", "key": {"[1]": {"tested_on": "MCF7 cells (with/without FKBP12 V55G-HA; mTOR F2108L)", "test": "Cell growth by CellTiter-Glo in MCF7 cells", "type": "cell-based, human", "settings": "72 h treatment", "protocol": "All cell lines were maintained in DMEM (Gibco) supplemented with 10% heat-inactivated FBS (Axenia Biologix) at 37 °C in 5% CO2. Flp-In T-REx 293 cells were obtained from Thermo Fisher supplemented with 15 µg/mL blasticin and 100 µg/mL Zeocin. Flp-In T-REx 293 FKBP12 V55G cells were supplemented with 15 µg/mL blasticin and 150 µg/mL hygromycin B. FKBP12 V55G expression was induced with 1 µg/mL doxycycline 24 h prior to drug treatments. MCF7 cells were obtained from ATCC (American Type Culture Collection), and MCF7 mTOR F2108L cells were described previously ([30]). When indicated, cells were treated with drugs at 60–80% confluency at a final DMSO concentration of 0.1%. At the end of the treatment period, cells were placed on ice and washed once with PBS. […] Lysate concentration was determined by Bradford assay (Thermo Fisher) and adjusted to 2 mg/mL with additional RIPA buffer. […]\nCells were seeded into 96-well tissue-culture treated plates (Greiner) and were allowed to incubate for 24 h. […] Cell viability was assessed by CellTiter-Glo (Promega). […] Luminescence was measured on a Tecan Spark 20M. […]\nHuman FKBP12 coding sequence was cloned a pET-47b bacterial expression vector using Gibson assembly and a C-terminal HA-tag was added by QuickChange PCR. FKBP12 proteins were expressed as 8xHis fusions in E. coli BL21 (DE3) cells. […]"}, "[2]": {"tested_on": "mTOR signaling in Flp-In T-REx 293 cells", "test": "mTOR signaling by Western blot in parental (wild-type) Flp-In 293 cells", "type": "cell-based, human", "settings": "for pIC50: Homo sapiens, 24 h treatment, wild-type 293 cells", "protocol": "All cell lines were maintained in DMEM (Gibco) supplemented with 10% heat-inactivated FBS (Axenia Biologix) at 37 °C in 5% CO2. Flp-In T-REx 293 cells were obtained from Thermo Fisher supplemented with 15 µg/mL blasticin and 100 µg/mL Zeocin. Flp-In T-REx 293 FKBP12 V55G cells were supplemented with 15 µg/mL blasticin and 150 µg/mL hygromycin B. FKBP12 V55G expression was induced with 1 µg/mL doxycycline 24 h prior to drug treatments. MCF7 cells were obtained from ATCC (American Type Culture Collection), and MCF7 mTOR F2108L cells were described previously ([30]). When indicated, cells were treated with drugs at 60–80% confluency at a final DMSO concentration of 0.1%. At the end of the treatment period, cells were placed on ice and washed once with PBS. Cells were scraped with a spatula and lysed in radioimmunoprecipitation assay (RIPA) buffer supplemented with protease and phosphatase inhibitors (cOmplete and phosSTOP, Roche) on ice for 5 min. Lysates were clarified by high-speed centrifugation. Lysate concentration was determined by Bradford assay (Thermo Fisher) and adjusted to 2 mg/mL with additional RIPA buffer. Samples were mixed with 5x SDS loading dye and heated at 95 °C for 5 min.\nSDS-PAGE was run with Novex 4–12% Bis-Tris gel (Invitrogen) in MOPS running buffer at 200V for 40 min. Samples were loaded at 20 µg lysate per lane. […] Following three 5 min. washes with TBST, membranes were imaged on a Li-COR Odyssey fluorescence imager. […] Blot quantification was performed in Fiji, and data were graphed and fit in Prism 9 (GraphPad). […] For detection of phosphorylated and total protein, primary antibodies for phospho-Akt/Akt, phospho-S6K/S6K, or phospho-S6/S6 were combined and detected using a mixture of species-specific secondary antibodies with orthogonal fluorescence to allow simultaneous detection of phosphorylated and total protein from a single membrane, or membrane was stripped (Cell Signaling Technology) after detection of phosphorylated protein and then reblocked and reprobed with primary antibody for total protein."}}, "note": "pIC50: −log10 of the molar value. Read-outs that look alike come from different tables or passages of the source."}
{"smiles": "CCO/N=C1/C[C@@H]([C@H](C)C[C@@H]2CC[C@@H](O)[C@H](OC)C2)OC(=O)[C@@H]2CCCCN2C(=O)C(=O)[C@]2(O)O[C@@H](CC[C@H]2C)C[C@H](OC)/C(C)=C/C=C/C=C/[C@@H](C)C[C@@H](C)C(=O)[C@H](OC)[C@H](O)/C(C)=C/[C@H]1C", "note": "[Rapa*-3Z]", "values": [{"measurement": "Cell growth inhibition, MCF7 cells with and without FKBP12 V55G", "setting": "[1]; CellTiter-Glo", "result": "activity was restricted to the mutant FKBP12-expressing cells"}, {"measurement": "Cell growth, MCF7 mTOR F2108L cells", "setting": "[1]; rapamycin resistance mutation", "result": "had no effect on the growth of these cells"}, {"measurement": "mTOR signaling in wild-type 293 cells", "setting": "[2]; 10 nM, time course", "result": "unaffected"}, {"measurement": "pIC50", "setting": "[2]; read-out: IC50 phospho-S6", "result": 6.92}, {"measurement": "pIC50", "setting": "[2]; read-out: IC50 phospho-S6K", "result": 7.12}, {"measurement": "Stability under experimental conditions (fly food, room temperature)", "setting": "15 days, 100 µM", "result": "at least 15 d"}, {"measurement": "Decomposition to rapamycin after prolonged storage", "setting": "storage under experimental conditions, wild-type larvae readout", "result": "does not decompose to rapamycin"}]}
